# From article PMC8015787 (Biochemistry, 2021)
# Biological target: T1, 1-deoxy-D-xylulose 5-phosphate synthase (DXPS) (Escherichia coli, UniProt P77488)
# T1 sequence (P77488 2-620): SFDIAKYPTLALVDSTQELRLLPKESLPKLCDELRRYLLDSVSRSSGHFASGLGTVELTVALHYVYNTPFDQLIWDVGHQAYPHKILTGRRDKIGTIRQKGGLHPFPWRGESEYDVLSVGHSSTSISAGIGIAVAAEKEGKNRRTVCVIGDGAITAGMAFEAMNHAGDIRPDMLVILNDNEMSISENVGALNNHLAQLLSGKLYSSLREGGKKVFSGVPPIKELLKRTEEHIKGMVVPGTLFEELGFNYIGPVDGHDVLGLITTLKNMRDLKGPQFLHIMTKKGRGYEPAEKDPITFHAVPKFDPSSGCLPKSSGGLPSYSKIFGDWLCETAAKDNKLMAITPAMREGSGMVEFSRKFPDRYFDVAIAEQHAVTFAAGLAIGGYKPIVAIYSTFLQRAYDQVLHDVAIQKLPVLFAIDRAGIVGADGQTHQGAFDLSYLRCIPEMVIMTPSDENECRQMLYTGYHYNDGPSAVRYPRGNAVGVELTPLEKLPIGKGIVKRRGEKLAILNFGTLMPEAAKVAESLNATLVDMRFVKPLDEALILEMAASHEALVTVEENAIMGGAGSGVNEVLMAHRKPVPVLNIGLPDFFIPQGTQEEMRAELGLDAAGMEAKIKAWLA
# Assay: CD titration of the ThDP-bound pre-decarboxylation intermediate, anaerobic
# Format: binding
compound,measurement,value
"CCC(=O)C(=O)O [compound 2, ketobutyrate]",Kd,16 ± 9 µM
